Series [1] relates to normal human fibroblasts. Nature of the series: Screening of molecules which stimulate the intracellular penetration of PFB-F incorporated in a liposome. The class given is cell-based. The protocol:
These molecules are retained in priority. The preparation of the liposomes with primary fatty monoamines of alkyl chain length of between 3 and 18 carbons and the quantification of the intracellular penetration of the fluorescent label are carried out as described in the preceding Example. […] We have thus studied the intracellular penetration of the PFB-F encapsulated in liposomes in the presence of primary fatty monoamines on the one hand, and with secondary fatty monoamines on the other hand. The preparation of the liposomes with primary or secondary fatty amines and the quantification of the intracellular penetration of the fluorescent markers are carried out as described in Example 8.

Series [2] concerns normal human fibroblasts. Nature of the series: Cell viability in the screening of functionalising molecules. To be noted: 1% of molecule (25 kDa PEI: 50 μM), 96-well plate. On the procedure: 250 μl of liposomal suspension is added onto cultures of normal human fibroblasts extracted from abdominal plasy and cultivated in a 96-well plate. Each concentration is tested on 6 different wells. The cell viability is evaluated by a test with paranitrophenylphosphate which determines the intracellular alkaline phosphatase activity after three rinses with pH 7.4 phosphate buffer. The percentage of living cells is calculated with respect to a control made without the addition of liposome in the culture well (n=6).
55 molecules are firstly tested in triplicate, in comparison with the 50 μM 25 kDa PEI. The intracellular penetration is quantified after 24 hours of incubation on normal human fibroblasts cultivated in 24-well plates as described in Example 2. The cell viability is estimated in a 96-well plate with 200 μl of liposomal suspension.
The intracellular penetration and the cytotoxicity are evaluated as described in Example 2.

In a further series the target is T1, tyrosinase (Homo sapiens, UniProt P14679).
T1 construct: on normal human melanocytes cultivated in 24-well plates and pre-confluent; endogenous in cells; host or cells: normal human melanocytes
T1 sequence (P14679 19-529): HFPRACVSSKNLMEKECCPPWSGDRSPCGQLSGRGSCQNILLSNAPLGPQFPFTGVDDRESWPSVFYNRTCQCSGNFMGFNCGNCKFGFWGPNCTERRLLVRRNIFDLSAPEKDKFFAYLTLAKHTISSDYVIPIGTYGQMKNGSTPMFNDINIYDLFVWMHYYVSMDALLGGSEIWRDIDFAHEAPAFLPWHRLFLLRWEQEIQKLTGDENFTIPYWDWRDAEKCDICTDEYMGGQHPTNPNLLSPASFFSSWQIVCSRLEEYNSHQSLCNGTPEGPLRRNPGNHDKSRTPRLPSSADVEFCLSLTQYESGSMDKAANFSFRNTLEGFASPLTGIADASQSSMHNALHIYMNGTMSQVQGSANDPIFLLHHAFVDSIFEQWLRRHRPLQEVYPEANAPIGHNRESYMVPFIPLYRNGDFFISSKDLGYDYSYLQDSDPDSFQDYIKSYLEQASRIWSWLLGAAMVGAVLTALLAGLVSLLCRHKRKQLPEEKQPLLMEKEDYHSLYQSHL
The experiment in a line: Tyrosinase activity in melanocytes (L-DOPA/MBTH). In kind it is cell-based. Also noted: unit not given here. The following applies: 66 hours; for Depigmenting effect: rate of enzymatic reaction (tyrosinase activity), Free: active applied free, normal human melanocytes; for Depigmenting effect: rate of enzymatic reaction (tyrosinase activity), PEI Liposome: active in 10 μM PEI functionalised liposome; for Depigmenting effect: rate of enzymatic reaction (tyrosinase activity), Soya liposome: active in 2% quaternised soya liposome; for Depigmenting effect: rate of enzymatic reaction (tyrosinase activity), Lipsosome: active in 5% lecithin liposome. The protocol: Actives are also co-encapsulated: Phytolight® (Coletica, Lyons, France) without 0.05% preservative (cocktail of plant actives), 0.05% arbutine and 1 mM catechin (Sigma). […] The actives which are liposomed or not are incubated for 66 hours at 37° C. under 5% CO2 in MMK2 medium (Sigma). […] The formation of a MBTH-o-quinone compound is characterised by an absorbance value at 490 nm quantified kinetically. The tyrosinase activity is expressed by the slope (rate) of the enzymatic reaction.

A short description of series [3]: Transcutaneous permeation on human skin. To be noted: 0.5% vitamin E in liposomes with 2% quaternised soya solution vs free or liposome without quaternised agent; HPLC, 5 to 24 hours.
Method: The diffusion kinetics were quantified by spectrofluorimetry from 3 to 24 hours. The release was quantified after 24 additional hours. The storage was also evaluated last. The number of samples tested is 5 per condition.
The diffusion kinetics were quantified by high performance liquid chromatography from 5 to 24 hours. The release was quantified after 24 additional hours. The storage was also evaluate last.
The mark [4] stands for this setting: 1% of molecule (25 kDa PEI: 50 μM), 5% soya lecithin, 0.01% PFB-F, 24 hours.

In the series on normal human fibroblasts [1] (setting [4]), “Stearamidopropyl cetearyl dimonium tosylate and PG” displayed a Stimulation factor of 13.1. Also, in the series with normal human fibroblasts [2], the Viability is on record as 93.2%.

Consider `CCCCN` [n-Butylamine C4, n-Butylamine], for which the Stimulation factor in the series with normal human fibroblasts [1] (setting [4]) is 1.4; in the series with normal human fibroblasts [1] (by number of alkyl chains of the amine (chain length), as in Example 8) it was 1.7; in the series with normal human fibroblasts [1] (primary monoamine with a single alkyl fatty chain, by number of carbons, as in Example 8), 1.4.

Take Quaternium 26: the Stimulation factor in the series with normal human fibroblasts [1] (setting [4]) stood at 30.9. Moreover, the Viability with normal human fibroblasts [2] stood at 59.2%.

As for `OC[C@H]1O[C@@H](Oc2ccc(O)cc2)[C@H](O)[C@@H](O)[C@@H]1O` [Arbutin], at tyrosinase, the “Depigmenting effect: rate of enzymatic reaction (tyrosinase activity), Free” value came to 0.004; the “Depigmenting effect: rate of enzymatic reaction (tyrosinase activity), PEI Liposome” value is reported as 0; the “Depigmenting effect: rate of enzymatic reaction (tyrosinase activity), Soya liposome” value is listed as 0; the “Depigmenting effect: rate of enzymatic reaction (tyrosinase activity), Lipsosome” value amounted to 0.001.

Consider Catechin, for which, at tyrosinase, the “Depigmenting effect: rate of enzymatic reaction (tyrosinase activity), Free” value worked out at 0.007; the “Depigmenting effect: rate of enzymatic reaction (tyrosinase activity), PEI Liposome” value was 0; the “Depigmenting effect: rate of enzymatic reaction (tyrosinase activity), Soya liposome” value is given as 0.003; the “Depigmenting effect: rate of enzymatic reaction (tyrosinase activity), Lipsosome” value is given as 0.007.

Turning to vitamin E, the “diffusion, release and storage (in words)” value in series [3] is “significantly stimulates the diffusion, the release and the storage”.

As for Quaternium 70 and PG, in the series on normal human fibroblasts [1] (setting [4]), the Stimulation factor was −0.2. Moreover, the Viability in the series with normal human fibroblasts [2] amounted to 63.9%.

With `C[N+](C)(CCO)CCCNC(=O)[C@H](O)[C@@H](O)[C@H](O)[C@H](O)CO.[Cl-]` [Quaternium 22], the Stimulation factor with normal human fibroblasts [1] (setting [4]) was 2. The same compound came in with a Viability in the series with normal human fibroblasts [2] of 98.9%.
